Patent US6124453A, “Macrolides” (Novartis AG, priority 1995, dated 2000)

What was measured:
[1] = Cytotoxic and cytostatic activity in vitro using the THP1 cell line (MTT); format: cell-based; settings: human, thp1 cells; after 24 h incubation, IFNγ 100 U/ml and LPS 5 μg/ml; read-out: IC50, cytotoxicity THP1 (MTT)
Experimental: 3. Cytotoxic and Cytostatic Activity in Vitro Using the THP1 Cell Line
Cytotoxicity is determined using the human monocytic cell line THP1 (5×10^4 cells/well) which are incubated in the presence of IFNγ (100 U/ml)and LPS (5 μg/ml) plus test compound (up to 10 μM) for 24 to 72 h at 37° C. Living cells are quantified using the colourimetric read-out MTT which measures mitochondrial dehydrogenase enzymatic activity in living cells (Mossman 1983). Macrolides of the invention, e.g. compounds of formula IX and their pharmaceutically acceptable salts, e.g. Sanglifehrins A, B, C and D, have IC50 s of about 1000-5000 nM after 24 h incubation in this assay.

[2] = system: heart allograft; assay: Rat heart allotransplantation (DA to Lewis); format: in vivo; settings: in combination with suboptimal doses of cyclosporin A
Experimental: (§1) 8. Rat/Mouse Heart Allotransplantation
(§2) The in vivo efficacy of macrolides of the invention is assessed in rat and mouse heart allotransplantation using Alzet osmotic minipumps for s.c. administration.

[3] = system: Localised Graft-versus-Host (GvH) reaction; assay: Localised graft-versus-host (GvH) reaction in the rat; format: in vivo; settings: dose of about 1 mg/kg s.c., 4 consecutive days, lymph node weight on day 7
Experimental: 6. Localised Graft-versus-Host (GvH) Reaction in the Rat
Spleen cells (1×10^7) from 6 week old female Wistar/Furth (WF) rats are injected subcutaneously on day 0 into the left hind-paw of female (F344×WF)F1 rats weighing about 100 g. Animals are treated for 4 consecutive days and the popliteal lymph nodes are removed and weighed on day 7. The difference in weight between the two lymph nodes is taken as the parameter for evaluating the reaction.

[4] = system: LPS-stimulated Murine B-cells; assay: LPS-stimulated murine B-cell proliferation; format: cell-based, CBA mice; settings: Mus musculus, 48 hours with 50 μg/ml LPS, labelled precursor incorporation into DNA, read-out: IC50, inhibition of B-cell proliferation
Experimental: LPS-stimulated Murine B-cells
Spleen cells (2×10^5) from CBA mice are incubated for 48 hours with 50 μg/ml LPS plus test compound. Proliferation is measured by labelled precursor incorporation into DNA.

[5] = system: spleen cells from Balb/c mice co-incubated with spleen cells from CBA mice; assay: Two-way MLR (murine mixed lymphocyte reaction); format: cell-based; settings: Mus musculus, 96 h, 4 days co-incubation, labelled precursor incorporation into DNA, read-out: IC50, proliferative response in two-way MLR
Experimental: 1. Proliferative Response Of Lymphocvtes to Allogenic Stimulation
Two-way MLR (Murine Mixed Lymphocyte Reaction)
Spleen cells (2×10^5) from Balb/c mice (female, 8-10 weeks) are co-incubated for 4 days with 2×10^5 spleen cells from CBA mice (female, 8-10 weeks). The allogenic cells induce a proliferative response in the responder spleen cell population which is measured by labelled precursor incorporation into the DNA.

[6] = system: Tumour Necrosis Factor (TNF) α release by peripheral blood mononuclear cells; assay: TNF release by human peripheral blood mononuclear cells; format: cell-based; settings: PBMC, IFNγ 100 U/ml and LPS 5 μg/ml, 3 h incubation, ELISA
Experimental: 4. TNF Release by Human Peripheral Blood Mononuclear Cells
Mononuclear cells are prepared from the peripheral blood of healthy volunteers using Ficoll-Hypaque density separation according to the method of Hansell et al. (1991). Cells (10^5 cells/well in 200 μl RPMI 10% FCS by volume) are incubated with serial dilutions of the test compounds for 30 min at 37° C. prior to the addition of stimulus. Interferon γ (100 U/ml) and LPS (5 μg/ml) are used as stimuli to induce Tumour Necrosis Factor (TNF) α release by peripheral blood mononuclear cells. After 3 h incubation, the cells are centrifuged (1200 rpm for 10 min) and the supernatants are collected. The amount of TNF present in the cell supernatants is determined using a commercially available enzyme-linked immunosorbent assay kit.

[7] = system: heart allograft; assay: Mouse heart allotransplantation (BALB/c to C3H); format: in vivo; settings: doses of the order of 30 mg/kg/day, s.c. Alzet osmotic minipumps
Experimental: as §1, §2

[8] = target: FK binding protein (Homo sapiens, UniProt P62942); assay: FK binding protein binding (standard test); settings: standard tests
Sequence of FK binding protein (P62942 whole entry): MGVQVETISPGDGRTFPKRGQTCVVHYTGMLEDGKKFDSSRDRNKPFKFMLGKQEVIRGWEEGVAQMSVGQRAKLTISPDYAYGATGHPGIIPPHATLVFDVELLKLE

[9] = system: DTH footpad swelling; assay: DTH induced by SRBC-TH cells; format: in vivo, C57 BL/6 mice; settings: doses of the order of 5 mg/kg s.c., footpad thickness after 24 hours
Experimental: 7. DTH Induced by SRBC-TH Cells
50 μl of the SRBC cell suspension (diluted 1:1 v/v with PBS) is injected s.c. into the left hind footpad (to measure non specific increase in footpad swelling due to the injection procedure). Right and left hind footpad thickness is measured 24 hours later.
The percent increase in thickness of the right footpad over the left footpad (z) is calculated. Thickness of right footpad=x. thickness of left footpad=y; % specific increase=z

[10] = system: calcineurin; assay: Calcineurin activity (standard test); format: biochemical; settings: standard tests
[11] = target: human recombinant cyclophilin A (Homo sapiens, UniProt P62937); assay: Cyclophilin binding assay (competitive ELISA / competitive binding test); settings: competition with coated BSA-cyclosporin A
Sequence of human recombinant cyclophilin A (P62937 whole entry): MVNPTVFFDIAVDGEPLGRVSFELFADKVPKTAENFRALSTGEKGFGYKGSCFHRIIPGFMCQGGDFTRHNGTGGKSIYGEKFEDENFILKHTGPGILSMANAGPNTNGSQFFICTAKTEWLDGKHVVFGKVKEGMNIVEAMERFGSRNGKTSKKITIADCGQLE
Description: 5. Cyclophilin Binding Assay
A suitable cyclophilin binding assay is the competitive ELISA test described by Quesniaux in Eur. J. Immunol. 1987 17 1359-1365.

Structure (SMILES)	CC50 at 24 h [1]	graft survival (in words), rat heart allotransplantation [2]	inhibition of the GvH reaction [3]	IC50 [4]	IC50 [5]	IC50 [6]	graft survival (in words), mouse heart allotransplantation [7]	FK binding protein binding activity [8]	reduction of swelling of the DTH mouse [9]	inhibition of calcineurin activity [10]	IC50 [11]
CCC1CC(C)C2(NC1=O)OC(CC(O)C(C)CCC=CC=C(C)C1CC=CC=CC(O)C(C)C3OC(C)(OC)CCC3C(=O)NC(C(C)C)C(=O)NC(Cc3cccc(O)c3)C(=O)N3CCCC(N3)C(=O)O1)C(C)C(O)C2C (stereo not drawn) [Sanglifehrin C]	1 to 5 µM	prolonged graft survival	up to 30%	40 to 100 µM	0.03 to 0.2 µM	0.2 to 1 µM	prolong graft survival	do not have FK binding protein binding activity	up to 50%	do not inhibit calcineurin activity	0.01 to 0.1 µM
CCC1CC(C)C2(NC1=O)OC(CC(O)C(C)CCC=CC=C(C)C1CC=CC=CC(O)C(C)C(O)C(CCC(C)=O)C(=O)NC(C(C)C)C(=O)NC(Cc3cccc(O)c3)C(=O)N3CCCC(N3)C(=O)O1)C(C)C=C2C (stereo not drawn) [Sanglifehrin B]	1 to 5 µM	prolonged graft survival	up to 30%	40 to 100 µM	0.03 to 0.2 µM	0.2 to 1 µM	prolong graft survival	do not have FK binding protein binding activity	up to 50%	do not inhibit calcineurin activity	0.01 to 0.1 µM
CC[C@H]1C[C@H](C)[C@@]2(NC1=O)O[C@@H](C[C@H](O)[C@@H](C)CC/C=C/C=C(\C)[C@@H]1C/C=C/C=C/[C@H](O)[C@H](C)[C@@H](O)[C@@H](CCC(C)=O)C(=O)N[C@@H](C(C)C)C(=O)N[C@@H](Cc3cccc(O)c3)C(=O)N3CCC[C@H](N3)C(=O)O1)[C@H](C)[C@H](O)[C@@H]2C [Sanglifehrin A]	1 to 5 µM	prolonged graft survival		40 to 100 µM	0.03 to 0.2 µM	0.2 to 1 µM	prolong graft survival	do not have FK binding protein binding activity	up to 50%		
